Experimental data: patent US6114390A, “Amino acid derivatives, pharmaceutical compositions containing these compounds and processes for preparing them” (Karl Thomae GmbH, priority 1997, dated 2000)

Key:
humanY2 = target: T1, humanY2 (Homo sapiens, UniProt P49146); experiment: Receptor binding, SMS-KAN cells (Y2); conditions: read-out: Affinity IC50, humanY2/SMS-KAN
T1 construct: endoge- nously expressing Y1 and Y2 receptors; endogenous in cells; host or cells: SMS-KAN (neuroblastoma) cells
T1 sequence (P49146 1-381): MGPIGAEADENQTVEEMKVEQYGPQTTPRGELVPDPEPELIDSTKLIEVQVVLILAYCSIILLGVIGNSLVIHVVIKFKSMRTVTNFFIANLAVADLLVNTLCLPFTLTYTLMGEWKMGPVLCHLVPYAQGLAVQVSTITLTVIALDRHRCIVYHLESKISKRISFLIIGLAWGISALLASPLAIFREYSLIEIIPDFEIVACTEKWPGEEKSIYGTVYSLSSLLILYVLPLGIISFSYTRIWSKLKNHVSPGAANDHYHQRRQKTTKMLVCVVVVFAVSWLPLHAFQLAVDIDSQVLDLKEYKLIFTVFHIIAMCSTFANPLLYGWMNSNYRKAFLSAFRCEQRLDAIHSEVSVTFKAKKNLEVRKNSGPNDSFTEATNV
Method: SMS-KAN (neuroblastoma) cells: Cells were grown and receptor binding assay performed analogously as described hereinbefore under A and by Wieland et al. in Peptides 16, 1389-1394 (1995).

human Y4 receptor = target: T2, human Y4 receptor (Homo sapiens, UniProt P50391); experiment: Receptor binding, CHO cells transiently transfected with human Y4 receptor; conditions: means ± S.E.M. of 3 to 5 experiments, read-out: Affinity IC50, humanY4/CHO
T2 construct: expressed in transfected cells; host or cells: CHO
T2 sequence (P50391 whole entry): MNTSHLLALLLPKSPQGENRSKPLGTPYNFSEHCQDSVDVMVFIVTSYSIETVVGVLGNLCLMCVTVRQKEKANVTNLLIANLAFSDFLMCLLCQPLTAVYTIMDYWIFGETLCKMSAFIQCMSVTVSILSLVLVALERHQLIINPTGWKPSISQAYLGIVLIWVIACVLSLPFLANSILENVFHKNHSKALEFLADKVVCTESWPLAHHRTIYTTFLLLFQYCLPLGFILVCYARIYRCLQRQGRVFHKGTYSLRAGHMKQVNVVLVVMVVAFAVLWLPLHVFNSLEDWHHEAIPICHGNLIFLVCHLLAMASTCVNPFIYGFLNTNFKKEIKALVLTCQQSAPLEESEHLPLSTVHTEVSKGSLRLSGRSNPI
Method: CHO cells transiently transfected with human Y4 and rat Y5 receptor: Transfection was performed using the lipofectamine method according to the manufacturer's protocol (GIBCO BRL Eggenstein, Germany) using expression plasmids encoding the rat Y5 or human Y4 receptor, respectively. Receptor binding was performed as described for rat Y1 expressing HEK 293 cells.

human Y5 receptor = target: T3, human Y5 receptor (Homo sapiens, UniProt Q15761); experiment: Receptor binding, HEK 293 cells stably transfected with human Y5 receptor; conditions: read-out: Affinity IC50, humanY5/293
T3 construct: expressed in transfected cells; host or cells: HEK 293
T3 sequence (Q15761 1-445): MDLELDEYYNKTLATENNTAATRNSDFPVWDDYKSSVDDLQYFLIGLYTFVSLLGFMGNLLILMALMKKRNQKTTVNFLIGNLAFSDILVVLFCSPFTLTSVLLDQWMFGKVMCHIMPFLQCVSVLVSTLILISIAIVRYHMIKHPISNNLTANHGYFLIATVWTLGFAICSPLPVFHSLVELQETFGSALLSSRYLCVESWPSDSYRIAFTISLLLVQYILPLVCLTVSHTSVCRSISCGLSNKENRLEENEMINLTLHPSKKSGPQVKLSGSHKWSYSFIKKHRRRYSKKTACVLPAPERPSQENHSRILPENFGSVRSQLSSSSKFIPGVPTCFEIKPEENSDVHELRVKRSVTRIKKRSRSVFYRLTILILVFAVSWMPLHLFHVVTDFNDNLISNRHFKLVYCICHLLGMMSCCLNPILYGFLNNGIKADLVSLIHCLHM
Method: HEK 293 cells stably transfected with human Y5 receptor:
Centrifugated cells were cultivated as described for BHK/Y1 cells except that a concentration of 0.7 mg/ml G-418 was used, no hygromycin added and no IPTG induction was necessary. The incubation buffer, cell cultivation and receptor binding was performed as described. Final concentration was 1.5×10^6 cells/ml and centrifugation stopped as described for Y1/BHK cells.

NPY induced food intake = experiment: Food intake in satiated rats after NPY application to the PVN; type: in vivo, rat; conditions: for % Inhibition of food intake: PVN, 2 h, 1 μg NPY
Method: For these determinations food intake was measured in normal satiated rats after application of NPY to the paraventricular nucleus (PVN) in the presence or absence of the test compound. […] The rats were individually housed in stainless steel cages where water and food were available ad libitum.
Rats under Pentobarbital anaesthesia were stereotactically implanted with a stainless steel double guide cannula targeted bilaterally at the PVNs. Stereotactic coordinates were: -1.8mm caudal, 0.5mm lateral to bregma and 7.0 mm below the skull surface. Injection cannulae extended the guide cannulae by 1 mm. Animals were allowed to recover from surgery for at least 10 days before being used in the experiments. Rats were handled and mock-injected during the […] recovery period to habituate them to the injection procedure.
Animals treated with both test compounds and NPY were treated first with the test compound. Then, 15 min. after PVN infusion of the test compound or vehicle (control) 1 μg of NPY was administered by PVN infusion.
Food intake was measured by placing preweighed pellets into the cages at the time of NPY injection. Pellets were removed from the cage at 2 h post NPY injection. The food intake of animals treated with test compound was calculated as a percentage of the food intake of control animals, i.e., animals treated with vehicle.

N=C(N)NCCC[C@@H](NC(=O)C(c1ccccc1)c1ccccc1)C(=O)NCc1ccc(CNC(N)=O)cc1 [Compound C]
IC50 (humanY2): > 10 µM
IC50 (human Y4 receptor): 12.3 µM
IC50 (human Y5 receptor): > 10 µM
NPY induced food intake (result in words) (NPY induced food intake): reduced
% Inhibition of food intake (NPY induced food intake; 15 μg): 25.9%
% Inhibition of food intake (NPY induced food intake; 30 μg): 52.8%
% Inhibition of food intake (NPY induced food intake; 60 μg): 69.8%
